ChEMBL document CHEMBL3751785, “Development and structural analysis of adenosine site binding tankyrase inhibitors” (Bioorg Med Chem Lett, 2016)
pIC50: −log10 of the molar value.

Columns and labels:
[1] = molecular target: T1, Tankyrase 1/2 (Homo sapiens, UniProt Q9H2K2+O95271); assay: Inhibition of tankyrase in WNT3a-stimulated human HEK293 cells by luciferase reporter gene assay; assay type: cell-based
T1 sequence (Q9H2K2 whole entry): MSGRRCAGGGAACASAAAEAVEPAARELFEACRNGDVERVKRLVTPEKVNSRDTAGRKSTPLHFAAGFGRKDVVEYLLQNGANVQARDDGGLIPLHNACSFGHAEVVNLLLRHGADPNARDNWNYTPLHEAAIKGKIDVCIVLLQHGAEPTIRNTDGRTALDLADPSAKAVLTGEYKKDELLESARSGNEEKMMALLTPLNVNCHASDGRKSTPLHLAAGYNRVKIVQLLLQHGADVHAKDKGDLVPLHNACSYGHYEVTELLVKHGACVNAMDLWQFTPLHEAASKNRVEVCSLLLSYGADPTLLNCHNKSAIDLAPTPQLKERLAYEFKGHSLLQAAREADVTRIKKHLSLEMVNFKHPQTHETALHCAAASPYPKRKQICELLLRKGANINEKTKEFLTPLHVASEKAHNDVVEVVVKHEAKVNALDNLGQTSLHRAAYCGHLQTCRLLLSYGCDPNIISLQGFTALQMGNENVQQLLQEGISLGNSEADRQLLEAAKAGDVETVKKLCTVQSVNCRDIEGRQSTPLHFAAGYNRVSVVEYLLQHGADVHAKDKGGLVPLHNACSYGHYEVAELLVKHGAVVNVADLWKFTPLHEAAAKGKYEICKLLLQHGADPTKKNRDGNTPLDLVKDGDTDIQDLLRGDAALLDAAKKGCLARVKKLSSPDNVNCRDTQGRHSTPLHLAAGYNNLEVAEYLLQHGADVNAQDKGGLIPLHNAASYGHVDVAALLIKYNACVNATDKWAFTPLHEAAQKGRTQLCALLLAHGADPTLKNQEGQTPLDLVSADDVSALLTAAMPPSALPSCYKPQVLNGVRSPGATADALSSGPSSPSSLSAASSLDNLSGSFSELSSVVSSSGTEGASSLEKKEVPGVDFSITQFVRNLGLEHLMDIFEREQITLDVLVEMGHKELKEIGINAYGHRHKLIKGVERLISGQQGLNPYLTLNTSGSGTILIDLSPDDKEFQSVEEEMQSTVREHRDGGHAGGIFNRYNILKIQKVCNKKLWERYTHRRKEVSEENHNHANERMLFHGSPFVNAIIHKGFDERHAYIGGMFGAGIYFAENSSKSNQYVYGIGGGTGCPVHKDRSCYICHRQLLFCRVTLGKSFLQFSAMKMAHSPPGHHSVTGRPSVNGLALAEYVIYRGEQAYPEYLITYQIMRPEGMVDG
T1 sequence (O95271 whole entry): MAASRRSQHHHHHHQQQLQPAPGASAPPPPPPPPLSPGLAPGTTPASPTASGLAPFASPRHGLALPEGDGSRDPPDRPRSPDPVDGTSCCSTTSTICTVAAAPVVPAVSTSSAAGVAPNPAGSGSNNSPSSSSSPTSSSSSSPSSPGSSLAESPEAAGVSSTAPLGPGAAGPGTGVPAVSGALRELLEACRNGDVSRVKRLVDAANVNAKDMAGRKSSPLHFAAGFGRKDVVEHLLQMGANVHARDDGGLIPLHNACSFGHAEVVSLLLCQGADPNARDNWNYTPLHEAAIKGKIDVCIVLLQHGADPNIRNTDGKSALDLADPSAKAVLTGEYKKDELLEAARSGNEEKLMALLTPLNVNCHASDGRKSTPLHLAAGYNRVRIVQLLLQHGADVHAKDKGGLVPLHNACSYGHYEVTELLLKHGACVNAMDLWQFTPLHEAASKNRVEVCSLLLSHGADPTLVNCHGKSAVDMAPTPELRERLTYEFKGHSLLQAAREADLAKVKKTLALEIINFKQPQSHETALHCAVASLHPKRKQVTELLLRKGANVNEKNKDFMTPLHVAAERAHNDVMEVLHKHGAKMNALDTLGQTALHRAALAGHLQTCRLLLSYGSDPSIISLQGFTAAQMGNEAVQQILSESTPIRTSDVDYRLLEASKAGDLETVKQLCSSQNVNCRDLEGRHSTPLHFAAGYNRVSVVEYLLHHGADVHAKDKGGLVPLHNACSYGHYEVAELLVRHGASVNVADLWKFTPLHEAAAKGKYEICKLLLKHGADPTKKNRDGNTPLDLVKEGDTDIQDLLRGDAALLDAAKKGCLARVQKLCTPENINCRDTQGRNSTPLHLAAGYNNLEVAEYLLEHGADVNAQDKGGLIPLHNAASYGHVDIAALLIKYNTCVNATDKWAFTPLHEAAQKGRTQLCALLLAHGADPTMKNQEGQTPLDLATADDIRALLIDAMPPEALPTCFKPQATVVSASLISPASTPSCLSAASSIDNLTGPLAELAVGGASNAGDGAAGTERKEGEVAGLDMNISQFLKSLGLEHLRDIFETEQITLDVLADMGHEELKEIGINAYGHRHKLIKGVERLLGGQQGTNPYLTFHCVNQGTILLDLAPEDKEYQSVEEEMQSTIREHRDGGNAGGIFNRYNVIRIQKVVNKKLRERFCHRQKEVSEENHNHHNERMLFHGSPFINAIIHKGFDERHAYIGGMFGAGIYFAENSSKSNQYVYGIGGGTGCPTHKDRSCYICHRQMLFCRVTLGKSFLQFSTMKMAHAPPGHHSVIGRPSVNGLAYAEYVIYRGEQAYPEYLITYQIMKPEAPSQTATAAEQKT

[2] = molecular target: T2, Protein mono-ADP-ribosyltransferase PARP3 (Homo sapiens, UniProt Q9Y6F1); assay: Inhibition of human ARTD3 by fluorescence analysis
T2 sequence (Q9Y6F1 whole entry): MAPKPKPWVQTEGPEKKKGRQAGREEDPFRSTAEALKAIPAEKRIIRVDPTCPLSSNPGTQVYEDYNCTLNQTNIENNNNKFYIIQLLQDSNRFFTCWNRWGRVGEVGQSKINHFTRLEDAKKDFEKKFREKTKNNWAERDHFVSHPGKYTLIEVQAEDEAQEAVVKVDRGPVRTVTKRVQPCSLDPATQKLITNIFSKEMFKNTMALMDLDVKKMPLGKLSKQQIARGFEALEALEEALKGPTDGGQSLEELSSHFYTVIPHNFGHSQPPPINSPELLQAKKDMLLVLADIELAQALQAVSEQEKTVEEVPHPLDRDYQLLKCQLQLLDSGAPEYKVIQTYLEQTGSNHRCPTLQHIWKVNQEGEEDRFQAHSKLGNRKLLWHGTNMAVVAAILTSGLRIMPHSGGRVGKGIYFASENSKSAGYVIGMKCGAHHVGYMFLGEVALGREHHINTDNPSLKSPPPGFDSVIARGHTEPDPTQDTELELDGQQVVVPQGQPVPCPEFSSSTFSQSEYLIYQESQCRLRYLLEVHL

[3] = molecular target: T3, Poly [ADP-ribose] polymerase tankyrase-2 (Homo sapiens, UniProt Q9H2K2); assay: Inhibition of human TNKS2 by fluorescence analysis
T3 sequence (Q9H2K2 whole entry): T1 sequence (Q9H2K2 whole entry)

[4] = molecular target: T4, Poly [ADP-ribose] polymerase tankyrase-1 (Homo sapiens, UniProt O95271); assay: Inhibition of human TNKS1 by fluorescence analysis
T4 sequence (O95271 whole entry): T1 sequence (O95271 whole entry)

IC50 [1]: 360 nM
pIC50 [2]: < 4.00
pIC50 ([3]; read-out: IC50): 5.67
IC50 ([3]; read-out: pIC50 (converted)): 2140 nM
pIC50 [4]: 6.24
Compound: COc1ccc(C2(CNC(=O)c3ccc(NC(=O)c4ccco4)cc3Cl)CCOCC2)cc1
